Measured values reported in patent US11760784B2, “Compositions comprising PEDF-derived short peptides and uses thereof” (BRIM Biotechnology, Inc., priority 2016, dated 2023).
Entries after “also recorded” stand apart in the source; their conditions may differ.

Key:
[1] = system: desiccating stress-induced dry eye; experiment: Corneal fluorescein staining in desiccating stress-induced dry eye (CEC) mice; format: in vivo, C57BL/6 mice; conditions: therapeutic: CEC 14 days to induce dry eye, then peptide on the eyes for 5 days
Procedure: In an animal model for dry eye diseases, mice were placed in a controlled environment chamber (CEC) to induce dry eyes as previously described (Barabino et al., 2005). Mice placed in the CEC were exposed to a relative humidity (RH)<25%, temperature of 20 to 22° C., with an airflow of 15 L/min, 12 hours per day. Non-Stressed mice were kept in a normal environment (RH >50%, no air flow, temperature of 21-23° C.) for the same duration. After 14 days, non-stressed mice were treated with vehicle, while the stressed mice were treated with either a test peptide (e.g., the 29mer PDSP) or vehicle solution (Vehicle group) for 5 days. Then, the cornea was examined with fluorescein staining.
Seven to 8-week-old female C57BL/6 mice were used for these experiments. Experimental procedures were approved by the Mackay Memorial Hospital Review Board and conducted according to the ARVO Statement for the Use of Animals in Ophthalmic and Vision Research.
(§1) Dry eye was induced by placing mice in a controlled environment chamber (CEC) as previously described (Barabino et al., 2005). Briefly, mice placed in the CEC were exposed to a relative humidity (RH)<25%, temperature of 20 to 22° C., and airflow of 15 L/min, 12 hours per day. Non-stressed (NS) mice without stress-induced dry eye were kept in a normal environment (RH >50%, no air flow, temperature of 21-23° C.) for the same duration. Corneal fluorescein staining and
Animals were anesthetized by an intraperitoneal injection of a mixture of zoletil (6 mg/kg) and xylazine (3 mg/kg). Corneal epithelial injury was determined by staining with topical fluorescein (Fluor-I-Strip, Ayerst Laboratories, Philadelphia, Pa.). Corneal fluorescein staining was examined with a slit-lamp biomicroscope under cobalt blue light and photographed with a digital camera. Dye staining of the cornea was scored in a manner as follows: score 0 for no punctuate staining; score 1 when less than one third of the cornea was stained; score 2 when two thirds or less was stained; and score 3 when more than two thirds was stained (Horwath-Winter J 2013).
To determine whether PDSP have therapeutic effects in a desiccating stress (DS)-induced ocular surface defects, mice were housed at controlled environment chamber (CEC) for 14 days to create ocular surface disruption. After 14 days in CEC, we used mice with fluorescence scores that are above 2 for the first experiments (FIG. 1A). Subsequently, dry eyes were treated topically with PDSP at 25-200 μM (3 times/day) or PDSP vehicle (1% CMC in BSS) for another 5 days while maintaining the same desiccating stress protocol.
To investigate whether the PDSP can suppress DS-induced corneal epithelial disruption, we applied the 14-day desiccating stress protocol to mice, and treated these mice topically with PDSP 3 times a day.

C2C12 cells = experiment: Cell viability of C2C12 cells in culture (MTT assay), alanine scanning; format: cell-based; conditions: C2C12 cell cultures (FIG. 10)
Procedure: This was tested with cell viability in cell cultures. […] Cell viability may be assessed with staining and cell number counts or with MTT assays. These techniques are well known in the art.

[2] = system: desiccating stress-induced dry eye; experiment: Tear production by phenol red thread test in CEC dry eye mice; format: in vivo, C57BL/6 mice; conditions: for ability to induce tear production (alanine scanning of the 29mer): CEC dry eye mice, phenol red thread method (FIG. 9)
Procedure: as §1
Tear production was measured with phenol red-impregnated cotton threads (Zone-Quick; Oasis, Glendora, CA). The validity of this test in mice was performed as previously described (Dursun et al., 2002). The threads were held with jeweler forceps and placed in the lateral canthus for 60 seconds. The tear production is expressed in millimeters of thread that is wet by the tear and turned red.
To determine whether PDSP have therapeutic effects in a desiccating stress (DS)-induced ocular surface defects, mice were housed at controlled environment chamber (CEC) for 14 days to create ocular surface disruption. After 14 days in CEC, we used mice with fluorescence scores that are above 2 for the first experiments (FIG. 1A). […]

[3] = system: desiccating stress-induced dry eye; experiment: Corneal fluorescein staining in desiccating stress-induced dry eye (CEC) mice; format: in vivo, C57BL/6 mice; conditions: CEC 14 days, then peptide for 3 days (FIG. 11); listed as mouse PDSP

Substance	corneal surface damage by fluorescein staining [1]	ability to sustain/enhance viabilities of the cells (alanine scanning of the 29mer) (C2C12 cells)	ability to induce tear production (alanine scanning of the 29mer) [2]	corneal damage by corneal fluorescein staining, human vs mouse 29mer [3]	tear production (phenol red thread), human vs mouse PDSP ([2]; CEC 14 days, then peptide for 3 days (FIG. 12), listed as mouse PDSP)
A96G: human PDSP 29mer with glycine substitution at residue 4 (A96) (Ac-SLGGEQRTESIIHRALYYDLISSPDIHGT-NH2; UniProt P36955 93-121, looked up, variant A96G)	substantial loss of PDSP activity	substantially abolished	substantial losses of abilities of PDSP to induce tear production		
I104A: human PDSP 29mer with alanine substitution at residue 12 (I104) (SLGAEQRTESIAHRALYYDLISSPDIHGT; UniProt P36955 93-121, looked up, variant I104A)	substantial loss of PDSP activity	substantially abolished	substantial losses of abilities of PDSP to induce tear production		
Q98A: human PDSP 29mer with alanine substitution at residue 6 (Q98) (SLGAEARTESIIHRALYYDLISSPDIHGT; UniProt P36955 93-121, looked up, variant Q98A)	substantial loss of PDSP activity	substantially abolished	substantial losses of abilities of PDSP to induce tear production		
R106A: human PDSP 29mer with alanine substitution at residue 14 (R106) (SLGAEQRTESIIHAALYYDLISSPDIHGT; UniProt P36955 93-121, looked up, variant R106A)	substantial loss of PDSP activity	substantially abolished	substantial losses of abilities of PDSP to induce tear production		
moPDSP 29mer: corresponding mouse sequence SLGAEHRTESVIHRALYYDLITNPDIHST (SEQ ID NO:5) (listed as Mus musculus)				capable of restore the ocular surface damages	capable of restore; also recorded: improved tear productions to the same extent
